Results reported in patent US9695155B2, “Herbicidal substituted pyrimidinyloxy benzene compounds” (E. I. DU PONT DE NEMOURS AND COMPANY, priority 2013, dated 2017).

How the values were obtained:
barnyardgrass = test: Test A postemergence; type: in vivo, Echinochloa crus-galli
Outline: (§1)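 Injury scores run from 0, no effect, to 100, complete control, judged by eye against untreated plants roughly 10 days after treatment. Chemicals carried a surfactant in a non-phytotoxic solvent and went onto loam–sand soil preemergence or onto one- to two-leaf seedlings postemergence.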

giant foxtail [1] = test: Test A postemergence; type: in vivo, Setaria faberii
Outline: as §1

corn [2] = test: Test A postemergence; type: in vivo, Zea mays
Outline: as §1

Heteranthera limosa = test: Test B flooded paddy test; type: in vivo; settings: Flood, 250 g ai/ha; 0 to 100 scale where 0 is no effect and 100 is complete control
Outline: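 Post-emergence paddy-water application at the 2-leaf stage, with 3 cm flood kept for the whole test. Response was judged visually relative to controls after 13 to 15 greenhouse days, 0 indicating no effect and 100 complete control.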

corn [3] = test: Test A preemergence; type: in vivo, Zea mays; settings: for Corn plant response rating: 500 g ai/ha; for Corn plant response rating / Plant response rating, Corn: 0 to 100 scale where 0 is no effect and 100 is complete control
Outline: as §1

velvetleaf = test: Test A preemergence; type: in vivo, Abutilon theophrasti; settings: for Velvetleaf plant response rating (0 to 100 scale): 125 g ai/ha; for Velvetleaf plant response rating: 500 g ai/ha, 0 to 100 scale where 0 is no effect and 100 is complete control
Outline: as §1

large (Lg) crabgrass = test: Test A preemergence; type: in vivo, Digitaria sanguinalis; settings: for Crabgrass, Large plant response rating: 500 g ai/ha; for Crabgrass, Large plant response rating / Plant response rating, Crabgrass, Large: 0 to 100 scale where 0 is no effect and 100 is complete control
Outline: as §1

morningglory [4] = test: Test A postemergence; type: in vivo, Ipomoea spp.
Outline: as §1

corn [5] = test: Test C postemergence; type: in vivo, Zea mays
Description: (§2) Seeds of plant species selected from blackgrass (Alopecurus myosuroides), Italian ryegrass (Lolium multiflorum), wheat, winter (winter wheat, Triticum aestivum), galium (catchweed bedstraw, Galium aparine), corn (Zea mays), large (Lg) crabgrass (Digitaria sanguinalis), giant foxtail (Setaria faberii), johnsongrass (Sorghum halepense), lambsquarters (Chenopodium album), morningglory (Ipomoea coccinea), yellow nutsedge (Cyperus esculentus), pigweed (Amaranthus retroflexus), ragweed (common ragweed, Ambrosia elatior), soybean (Glycine max), barnyardgrass (Echinochloa crus-galli), oilseed rape (Brassica napus), waterhemp (common waterhemp, Amaranthus rudis), kochia (Kochia scoparia), wild oat (Avena fatua), surinam grass (Brachiaria decumbens), foxtail, green (green foxtail, Setaria viridis), goosegrass (Eleusine indica), bromegrass, downy (downy bromegrass, Bromus tectorum), nightshade (eastern black nightshade, Solanum ptycanthum), cocklebur (common cocklebur, Xanthium strumarium), cupgrass, woolly (woolly cupgrass, Eriochloa villosa), bermudagrass (Cynodon dactylon), sunflower, (common oilseed sunflower, Helianthus annuus), Russian thistle (Salsola kali), and velvetleaf (Abutilon theophrasti) were planted into a blend of loam soil and sand and treated preemergence with test chemicals formulated in a non-phytotoxic solvent mixture which included a surfactant.
(§3) At the same time, plants selected from these crop and weed species and also barley, winter (winter barley, Hordeum vulgare), windgrass (Apera spica-venti), chickweed (common chickweed, Stellaria media), deadnettle (henbit deadnettle, Lamium amplexicaule), and canarygrass (littleseed canarygrass, Phalaris minor) were planted in pots containing Redi-Earth® planting medium (Scotts Company, 14111 Scottslawn Road, Marysville, Ohio 43041) comprising spaghnum peat moss, vermiculite, wetting agent and starter nutrients and treated with postemergence applications of test chemicals formulated in the same manner. Plants ranged in height from 2 to 18 cm (1- to 4-leaf stage) for postemergence treatments. Treated plants and controls were maintained in a greenhouse for 13 to 15 days, after which time all species were compared to controls and visually evaluated. Plant response ratings, summarized in Table C, are based on a scale of 0 to 100 where 0 is no effect and 100 is complete control. A dash (-) response means no test result.

pigweed = test: Test C postemergence; type: in vivo, Amaranthus retroflexus
Description: as §2, §3

oilseed rape = test: Test C postemergence; type: in vivo, Brassica napus
Description: as §2, §3

morningglory [6] = test: Test C postemergence; type: in vivo, Ipomoea coccinea
Description: as §2, §3

waterhemp = test: Test C postemergence; type: in vivo, Amaranthus rudis
Description: as §2, §3

giant foxtail [7] = test: Test C postemergence; type: in vivo, Setaria faberii
Description: as §2, §3

johnsongrass = test: Test C postemergence; type: in vivo, Sorghum halepense
Description: as §2, §3

[8] = 125 g ai/ha, 0 to 100 scale where 0 is no effect and 100 is complete control
[9] = 500 g ai/ha, 0 to 100 scale where 0 is no effect and 100 is complete control
[10] = 125 g ai/ha, 0 to 100 scale, 0 no effect, 100 complete control
[11] = 16 g ai/ha, postemergence, 0 is no effect, 100 is complete control
[12] = 31 g ai/ha, postemergence, visual rating, scale 0 to 100 (0 no effect, 100 complete control), 13 to 15 days
[13] = 125 g ai/ha, postemergence, visual rating, scale 0 to 100 (0 no effect, 100 complete control)
[14] = Postemergence, 62 g ai/ha, scale 0 to 100 (0 no effect, 100 complete control)

For `N#Cc1cnn(-c2c(C#N)cccc2Oc2ncc(Br)cn2)c1` [Compound 135], the “Barnyardgrass plant response rating” value (barnyardgrass; [8]) was 40, the “Plant response rating, Barnyardgrass” value (barnyardgrass; [9]) was 100 and the “Foxtail, Giant plant response rating” value (giant foxtail [1]; [8]) was 70. For the same molecule, the “Plant response rating, Foxtail, Giant” value (giant foxtail [1]; [9]) was 100, the “Corn plant response rating” value (corn [2]; [8]) was 10 and the “Plant response rating, Corn” value (corn [2]; [9]) was 80. The “Plant response rating, Ducksalad” value (Heteranthera limosa) was 70.

With `NC(=S)c1cccc(Oc2ncc(Cl)cn2)c1-n1cc(Cl)cn1` [Compound 292] the “Plant response rating, Barnyardgrass” value (barnyardgrass; [10]) was 60, the “Plant response rating, Barnyardgrass” value (barnyardgrass; [9]) was 90 and the “Corn plant response rating (0 to 100 scale)” value (corn [3]; 125 g ai/ha) was 20. The “Corn plant response rating” value (corn [3]) was 30, the “Plant response rating, Foxtail, Giant” value (giant foxtail [1]; [10]) was 70 and the “Plant response rating, Foxtail, Giant” value (giant foxtail [1]; [9]) was 90. For the same molecule, the “Velvetleaf plant response rating (0 to 100 scale)” value (velvetleaf) was 30, the “Velvetleaf plant response rating” value (velvetleaf) was 100 and the “Plant response rating, Corn” value (corn [2]; [10]) was 50. For the same molecule, the “Plant response rating, Corn” value (corn [2]; [9]) was 80, the “Crabgrass, Large plant response rating (0 to 100 scale)” value (large (Lg) crabgrass; 125 g ai/ha) was 100 and the “Crabgrass, Large plant response rating” value (large (Lg) crabgrass) was 100. The “Plant response rating, Ducksalad” value (Heteranthera limosa) was 45, the “Plant response rating, Morningglory” value (morningglory [4]; [10]) was 90 and the “Plant response rating, Morningglory” value (morningglory [4]; [9]) was 100.

For `FC(F)c1cccc(Oc2ncc(Br)cn2)c1-n1cc(C(F)(F)F)cn1` [Compound 163], the “Barnyardgrass plant response rating” value (barnyardgrass; [8]) was 30, the “Plant response rating, Barnyardgrass” value (barnyardgrass; [9]) was 100 and the “Plant response rating (0 to 100), Corn” value (corn [5]; [11]) was 5. The “Corn plant response rating” value (corn [5]; [12]) was 5, the “Plant response rating, Corn” value (corn [5]; [13]) was 10 and the “Plant response rating, Corn” value (corn [5]; [14]) was 10. For the same molecule, the “Plant response rating (0 to 100), Pigweed” value (pigweed; [11]) was 80, the “Pigweed plant response rating” value (pigweed; [12]) was 85 and the “Plant response rating, Pigweed” value (pigweed; [13]) was 90. The “Plant response rating, Pigweed” value (pigweed; [14]) was 90, the “Plant response rating (0 to 100), Oilseed Rape” value (oilseed rape; [11]) was 45 and the “Oilseed Rape plant response rating” value (oilseed rape; [12]) was 30. For the same molecule, the “Plant response rating, Oilseed Rape” value (oilseed rape; [13]) was 80, the “Plant response rating, Oilseed Rape” value (oilseed rape; [14]) was 60 and the “Plant response rating, Corn” value (corn [3]; 125 g ai/ha) was 0. For the same molecule, the “Corn plant response rating” value (corn [3]) was 10, the “Plant response rating (0 to 100), Morningglory” value (morningglory [6]; [11]) was 20 and the “Morningglory plant response rating” value (morningglory [6]; [12]) was 50. The “Plant response rating, Morningglory” value (morningglory [6]; [13]) was 90, the “Plant response rating, Morningglory” value (morningglory [6]; [14]) was 65 and the “Foxtail, Giant plant response rating” value (giant foxtail [1]; [8]) was 50. For the same molecule, the “Plant response rating, Foxtail, Giant” value (giant foxtail [1]; [9]) was 90, the “Plant response rating (0 to 100), Waterhemp” value (waterhemp; [11]) was 75 and the “Waterhemp plant response rating” value (waterhemp; [12]) was 75. For the same molecule, the “Plant response rating, Waterhemp” value (waterhemp; [13]) was 80, the “Plant response rating, Waterhemp” value (waterhemp; [14]) was 85 and the “Plant response rating (0 to 100), Foxtail, Giant” value (giant foxtail [7]; [11]) was 5. The “Foxtail, Giant plant response rating” value (giant foxtail [7]; [12]) was 5, the “Plant response rating, Foxtail, Giant” value (giant foxtail [7]; [13]) was 10 and the “Plant response rating, Foxtail, Giant” value (giant foxtail [7]; [14]) was 10. For the same molecule, the “Velvetleaf plant response rating (0 to 100 scale)” value (velvetleaf) was 20, the “Velvetleaf plant response rating” value (velvetleaf) was 100 and the “Corn plant response rating” value (corn [2]; [8]) was 30. The “Plant response rating, Corn” value (corn [2]; [9]) was 50, the “Plant response rating, Crabgrass, Large” value (large (Lg) crabgrass; 125 g ai/ha) was 100 and the “Crabgrass, Large plant response rating” value (large (Lg) crabgrass) was 100. For the same molecule, the “Plant response rating (0 to 100), Johnsongrass” value (johnsongrass; [11]) was 5, the “Johnsongrass plant response rating” value (johnsongrass; [12]) was 5 and the “Plant response rating, Johnsongrass” value (johnsongrass; [13]) was 10. For the same molecule, the “Plant response rating, Johnsongrass” value (johnsongrass; [14]) was 5, the “Plant response rating, Ducksalad” value (Heteranthera limosa) was 90 and the “Morningglory plant response rating” value (morningglory [4]; [8]) was 90. The “Plant response rating, Morningglory” value (morningglory [4]; [9]) was 100.

In the case of `FC(F)c1cccc(Oc2ncc(Cl)cn2)c1-n1cc(C(F)(F)F)cn1` [Compound 170], the “Barnyardgrass plant response rating” value (barnyardgrass; [8]) is reported as 70, the “Plant response rating, Barnyardgrass” value (barnyardgrass; [9]) is reported as 90 and the “Plant response rating, Corn” value (corn [3]; 125 g ai/ha) is reported as 0. The “Corn plant response rating” value (corn [3]) was 20, the “Foxtail, Giant plant response rating” value (giant foxtail [1]; [8]) was 70 and the “Plant response rating, Foxtail, Giant” value (giant foxtail [1]; [9]) was 90. For the same molecule, the “Velvetleaf plant response rating (0 to 100 scale)” value (velvetleaf) was 80, the “Velvetleaf plant response rating” value (velvetleaf) was 100 and the “Corn plant response rating” value (corn [2]; [8]) was 80. For the same molecule, the “Plant response rating, Corn” value (corn [2]; [9]) was 90, the “Plant response rating, Crabgrass, Large” value (large (Lg) crabgrass; 125 g ai/ha) was 100 and the “Crabgrass, Large plant response rating” value (large (Lg) crabgrass) was 100. For the same molecule, the “Plant response rating, Ducksalad” value (Heteranthera limosa) was 95, the “Morningglory plant response rating” value (morningglory [4]; [8]) was 60 and the “Plant response rating, Morningglory” value (morningglory [4]; [9]) was 90.
